Experimental data as given in US20250387390A1, “METHODS FOR TREATING FIBROSIS USING PKM2 ACTIVATORS” (Proda Biotech L.L.C., priority 2020, published 2025).

What was measured:
[1] = system: LX2 cells; test: qRT-PCR of Col1A1, PHGDH, PSAT1, SHMT1, SHMT2 mRNA in LX2 cells after TGFβ; assay type: cell-based; details: following TGFβ treatment, vs DMSO, qRT-PCR fold change
Protocol: Cellular levels of mRNA of collagen (Col1A1), PHGDH, PSAT1, SHMT1, and SHMT2 in LX2 cells with DASA-10 (black bar) or DMSO (open bar) treatment following TGFβ treatment were analyzed by qRT-PCR. The cellular mRNA levels are presented as fold change by comparing controls. Error bars represent mean±S.E.M.

[2] = system: LX2 cells; test: LOX and LOXL2 expression in LX2 cells under hypoxia (immunoblot, qPCR); assay type: cell-based; details: 10 μM, hypoxia 24 hours, vs DMSO
Protocol: (§1) Section (B) Relative band intensities were calculated for both LOX and LOXL2 using ImageJ.

[3] = system: NLF cells; test: LOX and LOXL2 expression in NLF cells under hypoxia (immunoblot, qPCR); assay type: cell-based; details: 10 μM, hypoxia 24 hours, vs DMSO
Protocol: as §1

[4] = system: TAA/alcohol liver fibrosis; test: TAA/alcohol liver fibrosis induction in mice with subsequent treatment; assay type: in vivo
Protocol: (§2) Sections (A) & (E) of FIG. 1 are schematic illustrations of the schedule of TAA/alcohol liver fibrosis (A) and bleomycin lung fibrosis (E) induction and subsequent TEPP-46 treatments. […] Sections (C) & (D) of FIG. 1 show quantitation of collagen levels in Sirius red (B) and Masson's trichrome (F) staining and a-SMA IF (B) and IHC (F) staining of fibrotic liver (B) and lung (F) using ImageJ software. Quantification was calculated from measurements of 10 mice. Four randomly selected tissue sections per animal and three randomly selected view fields in each section were quantified. The quantity of collagen levels in Sirius red or Masson's trichrome stain and α-SMA IF or IHC stain is presented as % of total area. […] Sections (G) & (H) show Quantitative analyses of Serine (G) and Glycine (H) levels in tissue extracts of liver and lung from mice treated with indicated agents by HPLC-ms. Serine and glycine levels are presented as relative abundance by defining the vehicle treated group as 100%. Error bars in Sections C, D, G, H represent mean±S.E.M

[5] = system: bleomycin lung fibrosis; test: Bleomycin lung fibrosis induction in mice with subsequent treatment; assay type: in vivo
Protocol: as §2

[6] = system: cerulein pancreatitis; test: Cerulein pancreatitis induction in mice with subsequent treatment; assay type: in vivo; details: cerulein-induced, vs vehicle
Protocol: Section (A) is schematic illustration of the schedule of cerulein (red arrows) pancreatitis induction and subsequent TEPP-46 treatments (green arrows). […] Quantification was calculated from measurements of 6 mice. Four randomly selected tissue sections per animal and three randomly selected view fields in each section were quantified. The quantity of collagen levels in Sirius red stain is presented as % of total area.

[7] = system: myocardial infarction (MI); test: Myocardial infarction by left ventricle ligation, cardiac fibrosis; assay type: in vivo; details: C57BL/6J mice, LV ligation 70 minutes, i.p. injection, vs vehicle
Protocol: C57BL/6J mice (n=6/group) were induced myocardial infarction (MI) by left ventricle ligation (LV). Sham are the mice underwent the same surgical procedure without LV. After 70 minutes, the LV was relieved. All mice were immediately treated with TEPP-46 or vehicle by i.p. injection. No treatment for the Sham mice. […] Scale bars, […]. […] The quantification is a mean value of randomly selected 4 fields from each section. Four sections were randomly selected from each mouse. The quantification is presented as blue staining Collagen Area (%). Error bars represent mean±S.E.M. * P<0.05, ** P<0.01, *** P<0.001, by unpaired two-tailed Student's t-test.

Row | Compound | metabolic enzymes involved in serine/glycine metabolism (mRNA of Col1A1, PHGDH, PSAT1, SHMT1, SHMT2) [1] | LOX and LOXL2 expression [2] | LOX and LOXL2 expression [3] | liver fibrosis (collagen by Sirius red, α-SMA IF staining, % of total area) ([4]; TAA/alcohol liver fibrosis, mice, vs vehicle) | LOX expression in vivo (IHC LOX positive area, LOX activity) ([4]; fibrotic liver, TAA/alcohol model) | serine/glycine metabolism (serine and glycine levels in tissue extracts by HPLC-ms) ([4]; fibrotic liver, relative abundance, vehicle group = 100%) | lung fibrosis (collagen by Masson's trichrome, α-SMA IHC staining, % of total area) ([5]; bleomycin lung fibrosis, mice, vs vehicle) | serine/glycine metabolism (serine and glycine levels in tissue extracts by HPLC-ms) ([5]; fibrotic lung, relative abundance, vehicle group = 100%) | LOX expression in vivo (IHC LOX positive area, LOX activity) ([5]; fibrotic lungs, bleomycin model) | pancreatitis (collagen in Sirius red staining, H&E of pancreas) [6] | cardiac fibrosis after infarction (trichrome Collagen Area %) [7]
1 | O=S(=O)(c1ccc2c(c1)OCCO2)N1CCN(S(=O)(=O)c2c(F)cccc2F)CC1 [DASA-10] | decreases metabolic enzymes that are involved in serine/glycine metabolism | reduces LOX and LOXL2 expression | reduces LOX and LOXL2 expression | – | – | – | – | – | – | – | –
2 | Cn1c2cc([S+](C)[O-])sc2c2cnn(Cc3cccc(N)c3)c(=O)c21 (centres unmarked) [TEPP-46] | – | – | – | reverses liver and lung fibrosis | reduces LOX expression in vivo | decreases serine/glycine metabolism | reverses liver and lung fibrosis | decreases serine/glycine metabolism | reduces LOX expression in vivo | reverse pancreatitis | decreases cardiac fibrosis after infarction
